In patent US20120309773A1, “HETEROCYCLIC COMPOUNDS AS JANUS KINASE INHIBITORS” (priority 2009, published 2012):

| SMILES | melting point |
| --- | --- |
| O=C(NC1CCC1)c1cc(Nc2nc(N3CCCC3c3ccccn3)nc3ccoc23)[nH]n1 (centres unmarked) [Compound 13E, N-cyclobutyl-5-(2-(2-(pyridin-2-yl)pyrrolidin-1-yl)furo[3,2-d]pyrimidin-4-ylamino)-1H-pyrazole-3-carboxamide] | 250.1 °C |
| O=C(NC1CC1)c1cc(Nc2nc(N3CCC[C@H]3CO)nc3ccoc23)n[nH]1 [Compound 15C, (S)—N-cyclopropyl-3-(2-(2-(hydroxymethyl)pyrrolidin-1-yl)furo[3,2-d]pyrimidin-4-ylamino)-1H-pyrazole-5-carboxamide] | 96.8 °C |
| CN(C)c1nc(Nc2cc(C(=O)NC3CCC3)n[nH]2)c2occc2n1 [Compound 19A, N-cyclobutyl-5-(2-(dimethylamino)furo[3,2-d]pyrimidin-4-ylamino)-1H-pyrazole-3-carboxamide] | 270.8 °C |
| O=C(NC1CCC1)c1cc(Nc2nc(N3CCCC3c3ccccn3)nc3ccoc23)n[nH]1 (centres unmarked) [Compound 14F, N-cyclobutyl-3-(2-(2-(pyridin-2-yl)pyrrolidin-1-yl)furo[3,2-d]pyrimidin-4-ylamino)-1H-pyrazole-5-carboxamide] | 274.3 °C |
| O=C(NC1CC1)c1cc(Nc2nc(N3CCCC3c3ccccn3)nc3ccoc23)[nH]n1 (centres unmarked) [Compound 12E, N-cyclopropyl-5-(2-(2-(pyridin-2-yl)pyrrolidin-1-yl)furo[3,2-d]pyrimidin-4-ylamino)-1H-pyrazole-3-carboxamide] | 238.4 °C |
